Experimental data taken from ChEMBL document CHEMBL1142177, “Effects of age, gender, and race/ethnicity on the pharmacokinetics of posaconazole in healthy volunteers” (Antimicrob Agents Chemother, 2007).

Experiments:
Format in all cases: ADME, organism-based
[1] = Tmax in white racial/ethnic human plasma at 400 mg, po twice daily after 8 days
[2] = Tmax in 18-45 yr old human plasma at 400 mg, po twice daily after 8 days
[3] = Cmax in 18-45 yr old human plasma at 400 mg, po twice daily after 8 days; set-up: dose 400 mg, route oral
Homo sapiens [4] = experiment: Apparent total clearance in >=65 yr old woman plasma at 400 mg, po twice daily after 8 days; conditions: in vivo, 192 h
[5] = (§1) AUC (0-12 hrs) in >=65 yr old human plasma at 400 mg, po twice daily after 8 days
[6] = Half life in black racial/ethnic human plasma at 400 mg, po twice daily after 8 days
[7] = Cmax in >=65 yr old woman plasma at 400 mg, po twice daily after 8 days; set-up: dose 400 mg, route oral; conditions: female, human
Homo sapiens [8] = experiment: AUC (0-12 hrs) in >=65 yr old woman plasma at 400 mg, po twice daily after 8 days; set-up: dose 400 mg, time < 12 hr, route oral; conditions: in vivo
[9] = Cmax in 18-45 yr old woman plasma at 400 mg, po twice daily after 8 days; set-up: dose 400 mg, route oral; conditions: female, human
Homo sapiens [10] = experiment: Apparent total clearance in white racial/ethnic human plasma at 400 mg, po twice daily after 8 days; conditions: in vivo, 192 h
[11] = Half life in 18-45 yr old human plasma at 400 mg, po twice daily after 8 days
[12] = Cmax in >=65 yr old man plasma at 400 mg, po twice daily after 8 days; set-up: dose 400 mg, route oral; conditions: male, human
Homo sapiens [13] = experiment: Apparent total clearance in 18-45 yr old human plasma at 400 mg, po twice daily after 8 days; conditions: in vivo, 192 h
[14] = Tmax in black racial/ethnic human plasma at 400 mg, po twice daily after 8 days
Homo sapiens [15] = experiment: AUC (0-12 hrs) in white racial/ethnic human plasma at 400 mg, po twice daily after 8 days; set-up: time < 12 hr, dose 400 mg, route oral; conditions: in vivo
[16] = Tmax in 18-45 yr old man plasma at 400 mg, po twice daily after 8 days; conditions: male, human
[17] = Tmax in >=65 yr old man plasma at 400 mg, po twice daily after 8 days; conditions: male, human
Homo sapiens [18] = experiment: Apparent total clearance in 18-45 yr old woman plasma at 400 mg, po twice daily after 8 days; conditions: in vivo, 192 h
Homo sapiens [19] = experiment: AUC (0-12 hrs) in 18-45 yr old woman plasma at 400 mg, po twice daily after 8 days; set-up: time < 12 hr, dose 400 mg, route oral; conditions: in vivo
Homo sapiens [20] = experiment: Apparent total clearance in >=65 yr old human plasma at 400 mg, po twice daily after 8 days; conditions: in vivo, 192 h
[21] = Cmax in 18-45 yr old man plasma at 400 mg, po twice daily after 8 days; set-up: dose 400 mg, route oral; conditions: male, human
[22] = Tmax in >=65 yr old human plasma at 400 mg, po twice daily after 8 days
Homo sapiens [23] = experiment: Apparent total clearance in >=65 yr old man plasma at 400 mg, po twice daily after 8 days; conditions: in vivo, 192 h
[24] = Half life in >=65 yr old woman plasma at 400 mg, po twice daily after 8 days; conditions: female, human
[25] = Cmax in >=65 yr old human plasma at 400 mg, po twice daily after 8 days; set-up: dose 400 mg, route oral
[26] = Half life in 18-45 yr old woman plasma at 400 mg, po twice daily after 8 days; conditions: female, human
[27] = Half life in white racial/ethnic human plasma at 400 mg, po twice daily after 8 days
[28] = Cmax in black racial/ethnic human plasma at 400 mg, po twice daily after 8 days; set-up: dose 400 mg, route oral
Homo sapiens [29] = experiment: as §1; set-up: time < 12 hr, dose 400 mg, route oral; conditions: in vivo
Homo sapiens [30] = experiment: Apparent total clearance in black racial/ethnic human plasma at 400 mg, po twice daily after 8 days; conditions: in vivo, 192 h
Homo sapiens [31] = experiment: Apparent total clearance in 18-45 yr old man plasma at 400 mg, po twice daily after 8 days; conditions: in vivo, 192 h
[32] = Cmax in white racial/ethnic human plasma at 400 mg, po twice daily after 8 days; set-up: dose 400 mg, route oral
[33] = Tmax in >=65 yr old woman plasma at 400 mg, po twice daily after 8 days; conditions: female, human
[34] = Half life in >=65 yr old man plasma at 400 mg, po twice daily after 8 days; conditions: male, human
Homo sapiens [35] = experiment: AUC (0-12 hrs) in 18-45 yr old man plasma at 400 mg, po twice daily after 8 days; set-up: time < 12 hr, dose 400 mg, route oral; conditions: in vivo
Homo sapiens [36] = experiment: AUC (0-12 hrs) in black racial/ethnic human plasma at 400 mg, po twice daily after 8 days; set-up: dose 400 mg, time < 12 hr, route oral; conditions: in vivo
[37] = Half life in 18-45 yr old man plasma at 400 mg, po twice daily after 8 days; conditions: male, human
Homo sapiens [38] = experiment: AUC (0-12 hrs) in 18-45 yr old human plasma at 400 mg, po twice daily after 8 days; set-up: dose 400 mg, time < 12 hr, route oral; conditions: in vivo
Homo sapiens [39] = experiment: AUC (0-12 hrs) in >=65 yr old man plasma at 400 mg, po twice daily after 8 days; set-up: time < 12 hr, dose 400 mg, route oral; conditions: in vivo
[40] = Tmax in 18-45 yr old woman plasma at 400 mg, po twice daily after 8 days; conditions: female, human

CC[C@@H]([C@H](C)O)n1ncn(-c2ccc(N3CCN(c4ccc(OC[C@@H]5CO[C@@](Cn6cncn6)(c6ccc(F)cc6F)C5)cc4)CC3)cc2)c1=O [POSACONAZOLE]
Tmax [1]: 5 h
Tmax [2]: 5 h
Cmax [3]: 2610 ng/mL
CL (Homo sapiens [4]): 25.4 L/h
half-life [5]: 41.8 h
half-life [6]: 32.2 h
Cmax [7]: 3500 ng/mL
AUC (Homo sapiens [8]): 37924 ng·h/mL
Cmax [9]: 2520 ng/mL
CL (Homo sapiens [10]): 54 L/h
half-life [11]: 31.6 h
Cmax [12]: 3250 ng/mL
CL (Homo sapiens [13]): 33.1 L/h
Tmax [14]: 5 h
AUC (Homo sapiens [15]): 30091 ng·h/mL
Tmax [16]: 4 h
Tmax [17]: 5 h
CL (Homo sapiens [18]): 32.6 L/h
AUC (Homo sapiens [19]): 25507 ng·h/mL
CL (Homo sapiens [20]): 26.7 L/h
Cmax [21]: 2680 ng/mL
Tmax [22]: 5 h
CL (Homo sapiens [23]): 28.1 L/h
half-life [24]: 42.4 h
Cmax [25]: 3370 ng/mL
half-life [26]: 31.9 h
half-life [27]: 37.3 h
Cmax [28]: 2400 ng/mL
AUC (Homo sapiens [29]): 35444 ng·h/mL
CL (Homo sapiens [30]): 37 L/h
CL (Homo sapiens [31]): 33.5 L/h
Cmax [32]: 2860 ng/mL
Tmax [33]: 6 h
half-life [34]: 37.7 h
AUC (Homo sapiens [35]): 27784 ng·h/mL
AUC (Homo sapiens [36]): 25107 ng·h/mL
half-life [37]: 31.3 h
AUC (Homo sapiens [38]): 26740 ng·h/mL
AUC (Homo sapiens [39]): 32963 ng·h/mL
Tmax [40]: 5 h
